Source: patent publication US20170197937A1, “NEW CRYSTAL FORM OF PANTOPRAZOLE SODIUM COMPOUND AND PREPARATION METHOD THEREFOR” (priority 2015, published 2017)
Counter-ions that a name gives are not always drawn.

How the values were obtained:
[1] = thermal stability test at 60° C. and 90% relative humidity; type: physicochemical; settings: for change of polymorph, purity and appearance: 15 days at 60° C. and 90% relative humidity, sodium salt
Procedure: The feature of the crystalline form M of Pantoprazole Sodium compound provided in the present invention is free of any crystalline solvents, and the melting point of the novel crystalline form is 192±2° C., which is higher than those of traditional crystalline forms. […] The product of the novel crystalline form has higher bulk density and fluidity with an appearance of stubby rod. The crystalline product especially has greater advantages in the preparation of formulations of Pantoprazole Sodium tablets, powder and subsequent other forms of such processes, due to the increased stability, fluidity and bulk density. At the same time, the product has better qualities in the process of filtering, washing, drying, packaging and storage due to the improvement of the properties described above.
1 g of dried solid Pantoprazole Sodium was added to 20 mL of n-butanol and n-pentanol (1:1, in volume) to form a suspension, and then 0.005 g BHA was added to the suspension under stirring, the suspension was heated to […] to make all the solid dissolved; and 60 mL of cyclohexane was dropwise added to the solution at a speed of 0.12 ml/min under constant temperature to obtain a suspension; meanwhile, a ultrasonic wave with a frequency of 20 KHz, a power of 50 W was applied, followed by cooling the solution down to 0° C. at a rate of 0.2° C./min, continuing to stir for 1 h, vacuum filtrating the crystal slurry, and the residue was dried at 50° C. and under normal pressure for 48 h to constant weight, to obtain crystalline form M of Pantoprazole Sodium product. XRD pattern of the novel crystalline form M was shown in FIG. 1, comprising characteristic peaks (expressed in degrees 2θ) at 5.62, 11.62, 12.16, 13.80, 17.18, 18.80, 21.72, 23.44, 25.16 and 26.88. DSC thermogram of the novel crystalline form M was shown in FIG. 2, comprising an endothermic peak at 192.61° C. […] The product of the novel crystalline form M had higher bulk density and fluidity with an appearance of stubby rod, as shown in FIG. 3.

[2] = storage stability at normal temperature and air humidity; type: physicochemical; settings: 100 days stored at normal temperature and air humidity
Procedure: XRD pattern of the novel crystalline form M was shown in FIG. 1, comprising characteristic peaks (expressed in degrees 2θ) at 5.62, 11.62, 12.16, 13.80, 17.18, 18.80, 21.72, 23.44, 25.16 and 26.88. DSC thermogram of the novel crystalline form M was shown in FIG. 2, comprising an endothermic peak at 192.61° C. […] The product of the novel crystalline form M had higher bulk density and fluidity with an appearance of stubby rod, as shown in FIG. 3.

in vivo = settings: both, ICR, mouse, iv
Description: (§2) The median lethal dose method was taken for the acute toxicity test in mice. 50 ICR mice met experimental requirements were selected and randomly divided into 5 dose groups by weight, 10 animals each group with males and females half and half. […] Toxic reactions were observed during administration and after administration in mice.

Wistar rats = experiment: long-term toxicity test in rats (13 weeks)
Procedure: (§1) 15 Beagle dogs were used for acute toxicity test, and given different doses of Pantoprazole Sodium of 44, 67, 100, 150 and 225 mg/kg. 3 animals belongs to each group and toxic reactions were observed after administration in each group. […] The Pantoprazole Sodium was divided into 5, 3 and […] groups by high, medium and low doses. The test period is 13 weeks. 80 healthy Wistar rats with males and females half and half were randomly divided into four groups, and were gavaged once a day regularly, drug withdrawal 2 weeks after administration 13 weeks, and then taken conventional toxicology observations and index detection.

[3] = acute toxicity test in Beagle dogs; type: in vivo; settings: dog, in vivo, doses 44-225 mg/kg
Procedure: as §1

Beagle dogs = experiment: acute toxicity test in Beagle dogs; type: in vivo; settings: at the dose of 150 mg/kg
Procedure: as §1

ICR mice = settings: intravenous injection
Description: as §2

[4] = cited from earlier work
[5] = toxic reaction tests (overall comparison); type: in vivo; settings: versus existing Pantoprazole Sodium

COc1ccnc(C[S+]([O-])c2nc3cc(OC(F)F)ccc3[n]2[Na+])c1OC (stereo not drawn) [Example 2, 5-difluoromethoxy-2-[(3,4-dimethoxy-2-pyridinyl)methyl]sulfinyl-1H-benzimidazole sodium salt]
change of polymorph, purity and appearance [1]: did not make any change
change of polymorph, purity and color [2]: did not make any change

COc1ccnc(C[S+]([O-])c2nc3cc(OC(F)F)ccc3[n]2[Na+])c1OC (stereo not drawn) [Example 1, 5-difluoromethoxy-2-[(3,4-dimethoxy-2-pyridinyl)methyl]sulfinyl-1H-benzimidazole sodium salt]
LD50 (in vivo): 392 mg/kg
toxicology observations and indexes, medium- and low-dose groups (Wistar rats; Wistar rats, gavage once a day, 13 weeks, 3 and 1 g/kg): no significant difference occurred
dose of nontoxic response (Wistar rats; both, Wistar, rat, in vivo, 13 weeks): 3000 mg/kg
histopathological examination (Wistar rats; rat, in vivo): liver cell degeneration occurred in one rat
indexes after drug withdrawal (Wistar rats; rat, in vivo): No obvious abnormality occurred
LD50 [3]: 70 mg/kg
toxic reactions (Beagle dogs): tremors, increased salivation, limp, vomiting, and death after 20 min
toxic reactions during administration (ICR mice): struggling, shortness of breath, limbs limp, difficulty breathing, and severe to death
change of polymorph, purity and appearance [1]: did not make any change
change of polymorph, purity and color [2]: did not make any change

COc1ccnc(C[S+]([O-])c2nc3cc(OC(F)F)ccc3[n]2[Na+])c1OC (stereo not drawn) [Example 3, 5-difluoromethoxy-2-[(3,4-dimethoxy-2-pyridinyl)methyl]sulfinyl-1H-benzimidazole sodium salt]
change of polymorph, purity and appearance [1]: did not make any change
change of polymorph, purity and color [2]: did not make any change

COc1ccnc(C[S+]([O-])c2nc3cc(OC(F)F)ccc3[n]2[Na+])c1OC (stereo not drawn) [Example 4, 5-difluoromethoxy-2-[(3,4-dimethoxy-2-pyridinyl)methyl]sulfinyl-1H-benzimidazole sodium salt]
change of polymorph, purity and appearance [1]: did not make any change
change of polymorph, purity and color [2]: did not make any change

COc1ccnc(C[S+]([O-])c2nc3cc(OC(F)F)ccc3[n]2[Na+])c1OC (stereo not drawn) [Pantoprazole Sodium, 5-difluoromethoxy-2-[(3,4-dimethoxy-2-pyridinyl)methyl]sulfinyl-1H-benzimidazole sodium salt]
solubility in trichloromethane or ethyl ether ([4]; trichloromethane or ethyl ether): almost insoluble
solubility in water or methanol ([4]; water or methanol): soluble

COc1ccnc(C[S+]([O-])c2nc3cc(OC(F)F)ccc3[n]2[Na+])c1OC (stereo not drawn) [crystalline form M, 5-difluoromethoxy-2-[(3,4-dimethoxy-2-pyridinyl)methyl]sulfinyl-1H-benzimidazole sodium salt]
toxicity compared with existing Pantoprazole Sodium [5]: decreased toxicity
change of polymorph, purity and appearance [1]: do not changed
thermal stability ([1]; conclusion from 15 days at 60° C. and 90% relative humidity): better thermal stability
